The source made the active and inactive calls. Rule as the data show it: actives have a measured IC50 and inactives only a lower limit.
target: Envelope glycoprotein gp160 (Human immunodeficiency virus 1, UniProt Q6QLK5); assay: cell-free HIV fusion peptide-binding blockers – biochemical, uHTS, fluorescence dequenching, […] (AID 1986)
Sequence (Q6QLK5 whole entry, the tested form may be a part): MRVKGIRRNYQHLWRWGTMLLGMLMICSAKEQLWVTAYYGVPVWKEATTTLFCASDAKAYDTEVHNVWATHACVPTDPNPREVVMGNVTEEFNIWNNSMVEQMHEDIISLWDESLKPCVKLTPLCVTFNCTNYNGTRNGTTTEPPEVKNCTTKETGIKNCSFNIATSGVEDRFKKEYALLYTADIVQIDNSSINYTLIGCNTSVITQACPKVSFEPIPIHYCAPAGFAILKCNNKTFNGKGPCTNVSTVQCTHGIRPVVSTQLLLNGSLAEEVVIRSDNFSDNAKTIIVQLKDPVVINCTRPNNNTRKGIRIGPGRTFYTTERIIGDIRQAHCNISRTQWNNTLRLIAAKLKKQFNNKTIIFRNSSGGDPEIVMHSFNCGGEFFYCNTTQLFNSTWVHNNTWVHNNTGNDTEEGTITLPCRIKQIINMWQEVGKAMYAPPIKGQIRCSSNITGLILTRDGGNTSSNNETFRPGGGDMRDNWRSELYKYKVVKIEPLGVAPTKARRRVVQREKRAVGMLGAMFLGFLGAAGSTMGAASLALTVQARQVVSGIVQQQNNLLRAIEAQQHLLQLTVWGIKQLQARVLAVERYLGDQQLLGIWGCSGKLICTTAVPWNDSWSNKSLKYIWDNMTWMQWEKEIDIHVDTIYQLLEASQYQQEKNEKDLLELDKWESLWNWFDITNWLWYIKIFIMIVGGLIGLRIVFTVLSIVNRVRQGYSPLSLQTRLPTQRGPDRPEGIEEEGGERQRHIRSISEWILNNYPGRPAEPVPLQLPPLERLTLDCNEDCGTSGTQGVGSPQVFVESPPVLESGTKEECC

SMILES	IC50
O=C(O)CCn1cc(/C=C/C(=O)c2ccc(Cl)cc2)c(-c2ccc(Br)cc2)n1	21.4 µM (active)
O=C(O)CN1C(=O)/C(=C\c2cc(Br)ccc2OCc2ccc(Cl)cc2)SC1=S	14.3 µM (active)
COc1cc(/C=C2/C(=O)NN(c3ccc(Cl)cc3)C2=O)ccc1OC(=O)c1ccco1	11.8 µM (active)
CCOC(=O)c1sc(N2C(=O)C(O)=C(C(=O)c3ccco3)C2c2cccc([N+](=O)[O-])c2)nc1C (stereo unspecified)	19 µM (active)
COc1ccccc1/C=C1\SC(=S)N(CCC(=O)Nc2ccc(C(=O)O)c(O)c2)C1=O	14.5 µM (active)
Cc1ccccc1N/N=C/c1sc(=O)n(Cc2cccc(C(=O)O)c2)c1Cl	15.6 µM (active)
